The text below walks through data of EP4786462A1, “PYRIDONE COMPOUNDS AND PREPARATION METHOD THEREFOR, AND APPLICATION” (Shenzhen Salubris Pharmaceuticals Co., Ltd., priority 2023, dated 2025).

A short description of data set [1]: Pharmacokinetic experiment in rats (iv and PO administration). The note with it: male, rat, plasma, SD rats, 5 mg/kg; for AUC(0-t): read-out: AUC0-24h. It counts as in vivo. From the text: Polyethylene glycol 400 (lot number R22040588, Shanghai Shaoyuan Reagent Co., Ltd.), DMSO (lot number 20200319, Guangdong Guanghua Sci-Tech Co., Ltd.), Sodium Chloride Physiological Solution (lot number 2011110727, Chenxin Pharmaceutical Co., Ltd.). LC-MS instrument (Thermo Fisher Ultimate 3000 UPLC, TSQ QUANTUM ULTRA triple quadrupole mass spectrometer, AB SCIEX 5500+ QTARP).
SD rats: Male, 180-250 g, purchased from Guangdong Vital River Laboratory Animal Technology Co., Ltd.
The test compound powder was accurately weighed and completely dissolved in DMSO. PEG-400 was added, vortexed and sonicated to mix, then sodium chloride physiological solution was added, vortexed and sonicated to mix to form a 0.5 mg/mL solution (DMSO:PEG-400:NS = 5:60:35, V/V/V). For oral gavage administration, the dose was 10 mL/kg; for intravenous administration, the dose was 2 mL/kg.
After intravenous or oral gavage administration to rats, venous blood (200 µL) was collected at 5 min (not collected for oral gavage administration), 15 min, 30 min, 1 h, 2 h, 5 h, 7 h, and 24 h into EDTA-K2-anticoagulated EP tubes. The samples were centrifuged at 10000 rpm for 2 min, and the plasma was collected and stored at -80 °C until analysis.
A certain amount of the test compound was accurately weighed and dissolved in DMSO to 2 mg/mL as a stock solution. An appropriate volume of the compound stock solution was accurately transferred and diluted with acetonitrile to prepare a series of standard solutions. 4 µL of each standard solution was accurately transferred, and 36 µL of blank plasma was added, vortexed to mix, to prepare plasma samples equivalent to plasma concentrations of 1, 3, 5, 10, 30, 100, 300, 1000, 3000 ng/mL. Each concentration was analyzed in duplicate to establish a standard curve. 30 µL of plasma was taken, and 200 µL of an acetonitrile solution containing internal standard propranolol (5 ng/mL) was added. After vortex mixing, the samples were centrifuged at 4000 rpm for 10 min, and the supernatant was taken for LC-MS analysis. The LC-MS detection conditions were as follows: Column: YMC-Triart C18, 50×2.1 mm, S-3µm, 12 nm.
Mobile phase A: water (0.1% formic acid), mobile phase B: acetonitrile, flow rate: 0.5 mL/min, gradient elution as shown in Table 2 below: Table 2
After detecting plasma concentrations by LC-MS, pharmacokinetic parameters in rats after administration were calculated using a non-compartmental model with WinNonlin 6.1 software. Table 3: Pharmacokinetic Parameters of the Compound of the Present Disclosure in Rats (iv and PO Administration)

A further data set addresses T1, hERG channel (Homo sapiens, UniProt Q12809).
T1 construct: expressed in transfected cells
As to the kind of experiment: Effect on hERG current in hERG-HEK293 cells (automated patch-clamp). It counts as cell-based. The note with it: 30 µM compound, peak tail current vs 0.3% DMSO.

SMILES strings stand for the structures.

T1 sequence (Q12809 whole entry): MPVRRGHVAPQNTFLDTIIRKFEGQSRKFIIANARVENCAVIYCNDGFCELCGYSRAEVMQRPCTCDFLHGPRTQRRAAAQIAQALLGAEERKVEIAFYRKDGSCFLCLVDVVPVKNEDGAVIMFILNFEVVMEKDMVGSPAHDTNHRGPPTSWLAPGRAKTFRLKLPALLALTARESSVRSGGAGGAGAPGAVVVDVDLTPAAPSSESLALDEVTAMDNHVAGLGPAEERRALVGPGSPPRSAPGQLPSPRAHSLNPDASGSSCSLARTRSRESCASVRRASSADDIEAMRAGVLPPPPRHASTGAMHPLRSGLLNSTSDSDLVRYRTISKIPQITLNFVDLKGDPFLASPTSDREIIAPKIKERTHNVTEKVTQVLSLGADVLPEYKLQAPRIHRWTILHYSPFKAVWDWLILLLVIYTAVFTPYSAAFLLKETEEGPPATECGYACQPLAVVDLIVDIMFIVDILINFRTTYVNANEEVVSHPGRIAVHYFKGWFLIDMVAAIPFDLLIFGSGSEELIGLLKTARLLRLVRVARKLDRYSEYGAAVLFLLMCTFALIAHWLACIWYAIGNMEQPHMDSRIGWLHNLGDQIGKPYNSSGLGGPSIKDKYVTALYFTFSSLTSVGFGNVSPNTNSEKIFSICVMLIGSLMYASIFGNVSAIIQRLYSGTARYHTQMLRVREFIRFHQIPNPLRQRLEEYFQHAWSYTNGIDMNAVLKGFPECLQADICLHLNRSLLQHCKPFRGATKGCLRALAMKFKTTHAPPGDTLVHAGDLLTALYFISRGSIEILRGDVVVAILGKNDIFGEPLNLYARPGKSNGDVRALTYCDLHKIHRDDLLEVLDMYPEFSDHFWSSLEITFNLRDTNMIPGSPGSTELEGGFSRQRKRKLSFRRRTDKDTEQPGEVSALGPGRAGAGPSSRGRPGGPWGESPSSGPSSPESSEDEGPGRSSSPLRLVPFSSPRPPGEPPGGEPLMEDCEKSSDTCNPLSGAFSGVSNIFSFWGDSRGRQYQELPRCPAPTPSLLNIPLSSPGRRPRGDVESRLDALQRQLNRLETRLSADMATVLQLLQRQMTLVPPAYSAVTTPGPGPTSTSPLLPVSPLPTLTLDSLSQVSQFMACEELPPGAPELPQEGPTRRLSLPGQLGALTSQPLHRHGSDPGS

`O=c1cccnn1-c1cnc(N[C@H]2CC[C@H](Nc3nc4ccccn4n3)C2)c(F)c1` [Example C47, 2-(6-(((1S,3S)-3-([1,2,4]triazolo[1,5-a]pyridin-2-ylamino)cyclopentyl)amino)-5-fluoropyridin-3-yl)pyridazin-3(2H)-one]: the AUC(0-t) in data set [1] was 53000 ng·h/mL. Further, the “hERG Inhibition (%)” value on hERG channel was below 50%. Take `O=c1ccccn1-c1cnc(N[C@H]2CC[C@H](Nc3nc4ccccn4n3)C2)cn1` [Example C9, 1-(5-(((1S,3S)-3-([1,2,4]triazolo[1,5-a]pyridin-2-ylamino)cyclopentyl)amino)pyrazin-2-yl)pyridi n-2(1H)-one]: the AUC(0-t) in data set [1] turned out to be 40300 ng·h/mL.

One may read the half-life as the time needed for the level to fall by half in the phase considered. Low readings indicate fast loss, high ones slow loss. For the compound `O=c1c(F)cccn1-c1ccc(N[C@H]2CC[C@H](Nc3ncc(OC(F)F)cn3)C2)nc1` [Example A14, 6'-(((1S,3S)-3-((5-(difluoromethoxy)pyrimidin-2-yl)amino)cyclopentyl)amino)-3-fluoro-2H-[1,3' -bipyridin]-2-one], in data set [1], the half-life was 4.42 h and the AUC(0-t) worked out at 31400 ng·h/mL. `O=c1cccnn1-c1ccc(N[C@H]2CC[C@H](Nc3nc4cccnc4s3)C2)nc1` [Example C35]: the AUC(0-t) in data set [1] worked out at 39700 ng·h/mL. For the same compound, the “hERG Inhibition (%)” value on hERG channel was below 50%.

On to `O=c1ccccn1-c1cnc(N[C@H]2CC[C@H](Nc3nc4cccnc4s3)C2)c(F)c1` [Example C22], for which, in data set [1], the AUC(0-t) worked out at 37700 ng·h/mL. Besides, at hERG channel, the “hERG Inhibition (%)” value is listed as below 50%. Consider `O=c1cccnn1-c1cnc(N[C@H]2CC[C@H](Nc3ncc(OC(F)F)cn3)C2)c(F)c1` [Example A28, 2-(6-(((1S,3S)-3-((5-(difluoromethoxy)pyrimidin-2-yl)amino)cyclopentyl)amino)-5-fluoropyridin-3-yl)pyridazin-3(2H)-one], for which the AUC(0-t) in data set [1] was determined as 70100 ng·h/mL.

For the compound `COc1cc(-n2ccccc2=O)cnc1N[C@H]1CC[C@H](Nc2ncc(OC(F)F)cn2)C1` [Example A27, 6'-(((1S,3S)-3-((5-(difluoromethoxy)pyrimidin-2-yl)amino)cyclopentyl)amino)-5'-methoxy-2H-[1,3'-bipyridin]-2-one], in data set [1], the half-life is 3.89 h and the AUC(0-t) came out at 32000 ng·h/mL. Moreover, the “30 uM-hERG Inhibition” value on hERG channel amounted to 40.72. As for `O=c1cccnn1-c1cnc(N[C@H]2CC[C@H](Nc3nc4cccnc4s3)C2)c(F)c1` [Example C34], the AUC(0-t) in data set [1] was 41400 ng·h/mL. Moreover, at hERG channel, the “hERG Inhibition (%)” value is on record as below 50%. For `N#Cc1cccn(-c2ccc(N[C@H]3CC[C@H](Nc4ncc(OC(F)F)cn4)C3)nc2)c1=O` [Example A13, 6'-(((1S,3S)-3-((5-(difluoromethoxy)pyrimidin-2-yl)amino)cyclopentyl)amino)-2-oxo-2H-[1,3'-bipyridine]-3-carbonitrile], in data set [1], the half-life was 6.02 h and the AUC(0-t) was 42500 ng·h/mL. For `O=c1ccccn1-c1cnc(N[C@H]2CC[C@H](Nc3nc4ccccn4n3)C2)c(F)c1` [Example C17, 6'-(((1S,3S)-3-([1,2,4]triazolo[1,5-a]pyridin-2-ylamino)cyclopentyl)amino)-5'-fluoro-2H-[1,3'-bipyridin]-2-one], the AUC(0-t) in data set [1] stood at 39800 ng·h/mL. Further, the “hERG Inhibition (%)” value on hERG channel was below 50%.

Regarding `COc1ccc2nc(N[C@H]3CC[C@H](Nc4ccc(-n5ccccc5=O)cn4)C3)nn2c1` [Example C21], the “hERG Inhibition (%)” value on hERG channel is listed as below 50%. Regarding `CC(O)c1cccn(-c2ccc(N[C@H]3CC[C@H](Nc4ncc(OC(F)F)cn4)C3)nc2)c1=O` (stereo partly drawn) [Example A35, 6'-(((1S,3S)-3-((5-(difluoromethoxy)pyrimidin-2-yl)amino)cyclopentyl)amino)-3-(1-hydroxyethyl)-2H-[1,3'-bipyridin]-2-one], in data set [1], the half-life was 14.9 h and the AUC(0-t) worked out at 60100 ng·h/mL. For the same compound, the “30 uM-hERG Inhibition” value on hERG channel came to 33.81. Take `O=c1c(Cl)cccn1-c1ccc(N[C@H]2CC[C@H](Nc3ncc(OC(F)F)cn3)C2)nc1` [Example A9, 3-chloro-6'-(((1S,3S)-3-((5-(difluoromethoxy)pyrimidin-2-yl)amino)cyclopentyl)amino)-2H-[1,3 '-bipyridin]-2-one]: the AUC(0-t) in data set [1] is 29400 ng·h/mL. In the case of `O=c1ccccn1-c1cnc(N[C@H]2CC[C@H](Nc3ncc(OC(F)F)cn3)C2)c(F)c1` [Example A17, 6'-(((1S,3S)-3-((5-(difluoromethoxy)pyrimidin-2-yl)amino)cyclopentyl)amino)-5'-fluoro-2H-[1,3 '-bipyridin]-2-one], in data set [1], the half-life is 2.97 h and the AUC(0-t) was 43800 ng·h/mL.
